Results from US8524978B2, “Composition for production of plant body having improved sugar content, and use thereof” (Japan Science and Technology Agency, priority 2007, dated 2013).

What was measured:
Type in all cases: in vivo
Lycopersicum esculentum [1] = assay: Cultivation of Lycopersicum esculentum with GSSG or GSH, sensory tests of fruit (Example 1); conditions: 50 mL of 0.5 mM at root twice a week, 60 days
Source text: In the present example, Lycopersicum esculentum was cultivated with use of GSSG or GSH. Details of cultivation are described below.
First, Lycopersicum esculentum seedlings (TAKII & CO. Ltd., product name: Osama tomato reika) were transplanted into a hydroponic culture pot ( 1/2000 a). In the hidroponic culture pot, 6 L of vermiculite (ASAHI INDUSTRIES Co., LTD.), 3 L of KUREHA horticultural soil (KUREHA CORPORATION), and 3 L of vermiculite were layered as a lower, middle, and upper layers, respectively.
During the cultivation of Lycopersicum esculentum, 50 mL of 0.5 mM GSSG or 0.5 mM GSH (adjusted with 0.1N NaOH to be at pH 7) was applied twice a week at a root per plant. The Lycopersicum esculentum plants were grown for 60 days without being subjected to bud removal. Last 10 days was used as a harvest period for harvesting fruit of the plants. For comparison, a Lycopersicum esculentum plant was grown under the same condition, except that GSSG and GSH were not applied. To the plants of any condition, 3 g of Kumiai phosphorate ammonium nitrate potassium S-604 (Chisso Asahi Fertilizer Co., Ltd.) was applied as an additional fertilizer once in 2 weeks.
(§1) Next, the fruit harvested was subjected to sensory tests of sugar content and the like. As a result, it was determined that fruit of the plant applied with GSSG increased in sugar content compared to that of the plant not applied with GSSG or GSH. Further, it was determined that the plant applied with GSSG increased in number of fruit. It was determined that fruit of the plant applied with GSH increased in sugar content and acidity.

Lycopersicum esculentum [2] = assay: Sugar content determination of Lycopersicum esculentum fruit with refractometer (Example 2); conditions: 0.5 mM applied as in Example 1; compared to Cont and Cont2 Sunny conditions; ANOVA 5%
Source text: Cultivated were Lycopersicum esculentum plants to which GSSG or GSH was applied by the method described in Example 1. Then, obtained fruit of the plants was subjected to sugar content determination using “Pocket” Refractometer APAL-1 (ATAGO CO., LTD.).
For comparison, Lycopersicum esculentum plants were cultivated under two types of conditions (referred to as “Cont” and “Cont2 Sunny”). In the Cont condition, Lycopersicum esculentum plants were cultivated by the same method as in Example 1, except that GSSG and GSH were not applied. In the Cont2 Sunny condition, a Lycopersicum esculentum plant was not applied with GSSG or GSH and was independently cultivated at a site sufficiently irradiated with sunlight so that illuminance on the Lycopersicum esculentum plant becomes 100%. In the Cont condition and a condition in which GSSG or GSH was applied, the plants were planted at intervals of 40 cm to 50 cm. In this case, a plant may intercept light irradiating another plant. Therefore, illuminance on such plants becomes less than 100%.
In the condition in which GSSG was applied, the condition in which GSH is applied, and the Cont condition, three Lycopersicum esculentum plants were cultivated, respectively. In the Cont2 Sunny condition, one Lycopersicum esculentum plant was cultivated. […]

[3] = tested on: Vitis labrusca (Delaware); assay: Cultivation of Vitis labrusca with GSSG or GSH, sensory test (Example 5)
Description: In the present invention, Vitis labrusca was cultivated. Specifically, immediately after flowering of a Vitis labrusca (Delaware) plant, a mixed solution of 1 mM gibberellin (GA3) and 1 mM of an agent was applied to anthotaxy of the plant. The agent was GSSG or GSH. Then, the plant was coated with the agent and thereafter produced fruit was harvested. For comparison, a Vitis labrusca plant was cultivated in the same way, except that GA3, but not GSSG or GSH, was applied, and fruit thereof was harvested and subjected to a sensory test described below.
The fruit harvested was subjected to a sensory test of sugar content. As a result, it was determined that fruit of the plant applied with GA3 and GSSG or GSH increased in sugar content compared to that of the plant applied with only GA3. Further, it was determined that the plant applied with GSSG and GA3 increased in size of fruit.

Lycopersicum esculentum [4] = assay: Change of sugar content over time after one application of GSH or GSSG (Example 6); conditions: 50 mL of 0.5 mM once at root 90 days after sowing; fruit harvested day 0 to day 4
Description: In the present example, a sugar content of a plant was determined after a substance for regulating an oxidation-reduction state of a cell was applied to the plant. The substance for regulating an oxidation-reduction state of a cell was GSH or GSSG. As in the case of Example 1, Lycopersicum esculentum was used as the plant. Specifically, the following operations were carried out.
Ninety days after sowing of Lycopersicum esculentum seeds, Lycopersicum esculentum plants were subjected to a GSH or GSSG treatment. The Lycopersicum esculentum plants were cultivated by the same method as in Example 1 except for the GSH or GSSG treatment. The GSH or GSSG treatment was such that 50 mL of 0.5 mM GSSH or 0.5 mM GSH (adjusted with 0.1N NaOH to be at pH 7) was applied once at a root per plant. Then, fruit of the plants was harvested every day from the 0th day until the 4th day after application of GSH or GSSG, and subjected to sugar content determination. […] FIG. 3 is a graph showing a determination result of relation between sugar content and the number of days from an application day of GSH or GSSG. In FIG. 3, the vertical scale indicates sugar content (Brix, unit: %) and the horizontal scale indicates days from the application day. In FIG. 3, lines labeled with circles, triangles, and squares show results of the plants applied with GSH, GSSG, and no GSH and no GSSG, respectively. […]

Fragaria ananassa [5] = assay: Cultivation of Fragaria ananassa with GSSG or GSH, sensory tests of fruit (Example 10); conditions: 50 mL of 0.2 or 0.5 mM GSSG, or 0.4 or 0.5 mM GSH, once a week at root, 63 days
Description: In the present example, Fragaria ananassa was cultivated with use of GSSG or GSH. Details of cultivation are described below.
(§2) First, Fragaria ananassa seedlings were transplanted to a planter. In the planter, 6 L of vermiculite (ASAHI INDUSTRIES Co., LTD.), 3 L of KUREHA horticultural soil (KUREHA CORPORATION), and 3 L of vermiculite were layered as a lower, middle, and upper layers, respectively.
(§3) During cultivation of Fragaria ananassa plants, 50 mL of 0.2 mM or 0.5 mM GSSG or 50 mL of 0.4 mM or 0.5 mM GSH (adjusted with 0.1N NaOH to be at pH7) was applied once a week at a root per plant. The plants were grown for 63 days without being subjected to bud removal. For comparison, a Fragaria ananassa plant was grown under the same condition, except that GSSG and GSH were not applied. To the plants of any condition, 3 g of Kumiai phosphorate ammonium nitrate potassium S-604 (Chisso Asahi Fertilizer Co., Ltd.) was applied as an additional fertilizer once in 2 weeks.
as §1, with “sugar content and decreased in acidity compared to” for “sugar content compared to”, “It was also determined that” for “It was determined that”

Fragaria ananassa [6] = assay: Sugar content determination of Fragaria ananassa fruit with refractometer (Example 10); conditions: 50 mL of 0.2 or 0.5 mM GSSG, or 0.4 or 0.5 mM GSH, once a week at root; significance level 5%
Description: as §2, §3
Further, the fruit obtained was subjected to sugar content determination using “Pocket” Refractometer APAL-1 (ATAGO CO., LTD.). For comparison, fruit not applied with GSSG or GSH was also subjected to the sugar content determination. […] In FIG. 7, the vertical scale indicates sugar content (Brix, unit: %).

N[C@@H](CCC(=O)N[C@@H](CS)C(=O)NCC(=O)O)C(=O)O [GSH, reduced glutathione]
acidity of fruit (sensory test) (Lycopersicum esculentum [1]): increased | sugar content of fruit (sensory test) (Lycopersicum esculentum [1]; compared to plant not applied with GSSG or GSH): increased | sugar content of fruit (Brix) (Lycopersicum esculentum [2]): significantly increased | sugar content of fruit (sensory test) ([3]; 1 mM agent mixed with 1 mM gibberellin (GA3), applied to anthotaxy, compared to plant applied with only GA3): increased | sugar content ([3]; applied without GA3): increased | sugar content of fruit (Brix) after application (Lycopersicum esculentum [4]): rapidly improve | acidity of fruit (sensory test) (Fragaria ananassa [5]): increased | sugar content of fruit (sensory test) (Fragaria ananassa [5]; vs plant not applied): increased | sugar content of fruit (Brix), ANOVA versus fruit not applied (Fragaria ananassa [6]): significant difference
